Experimental data as given in patent US10053463B2 (Janssen Pharmaceutica NV, priority 2013, dated 2018).

What follows are compounds tested against P2X7 (Homo sapiens (Human), UniProt Q99572) (assay: P2X7 antagonism in human peripheral blood mononuclear cells (PBMCs), IL-1β release). Conditions: P2X7; Table 3 (additional runs); 10 μM compound; read-out: PBMC 10 μM (% control).
Assay type: cell-based
Procedure: P2X7 Antagonism in Human Peripheral Blood Mononuclear Cells (PBMCs) and Human Whole Blood.
Human blood was collected using a blood donor program. PBMCs were isolated from blood using a Ficoll density gradient technique. Briefly, blood was laid on Ficoll solution and centrifuged at RT for 20 minutes at 2000 rpm. The buffy layer (between red blood cells and plasma) was carefully collected by aspiration, washed with PBS and centrifuged again at 1500 rpm for 15 minutes. The resulting cell pellet was washed and plated on 96 well-plates for experiments. For the Human Whole Blood experiments, 150 μl of human blood was platted on 96 well-plates. Lipopolysaccharide (LPS) (30 ng/ml) was added to each well and incubated for 1 hour. Test compounds were then added and incubated for 30 minutes. The P2X7 agonist, 2′(3′)-O-(4-benzoylbenzoyl) adenosine 5′-triphosphate (Bz-ATP) was then added at a final concentration of 0.5 mM (PBMC) or 1 mM (blood). Cells were incubated for an additional 1.5 hours. At that point, supernatant was collected and stored for IL-1β assay using manufacturer's protocol for enzyme-linked immunosorbent assay (ELISA). Data was expressed as percent control, where control is defined as the difference in IL-1β release in LPS+Bz-ATP samples and LPS only samples. Data was plotted as response (% control) versus concentration to generate IC50 values. […] Data are analyzed and graphed on Graphpad Prism 5. For analysis, each concentration point is averaged from triplicate values and the averaged values are plotted on Graphpad Prism.

Sequence of P2X7 (Q99572 whole entry): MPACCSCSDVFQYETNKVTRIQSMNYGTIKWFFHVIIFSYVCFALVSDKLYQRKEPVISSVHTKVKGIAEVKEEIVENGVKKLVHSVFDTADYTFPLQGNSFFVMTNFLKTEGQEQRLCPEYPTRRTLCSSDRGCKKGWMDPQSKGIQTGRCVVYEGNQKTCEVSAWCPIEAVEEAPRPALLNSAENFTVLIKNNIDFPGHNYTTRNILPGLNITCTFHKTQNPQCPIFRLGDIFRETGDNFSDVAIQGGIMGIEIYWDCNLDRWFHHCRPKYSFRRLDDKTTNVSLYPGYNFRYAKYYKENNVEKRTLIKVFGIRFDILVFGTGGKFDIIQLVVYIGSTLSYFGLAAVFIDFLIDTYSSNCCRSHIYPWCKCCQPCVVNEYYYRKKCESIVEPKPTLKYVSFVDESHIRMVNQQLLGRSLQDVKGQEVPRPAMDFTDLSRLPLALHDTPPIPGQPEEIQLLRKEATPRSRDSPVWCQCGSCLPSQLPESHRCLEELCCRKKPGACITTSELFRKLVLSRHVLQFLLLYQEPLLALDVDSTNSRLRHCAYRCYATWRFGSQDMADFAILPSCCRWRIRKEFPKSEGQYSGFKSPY

Going from `C[C@H]1Cn2c(nnc2-c2cnn(C)c2)C(=O)N1Cc1cccc(C(F)(F)F)c1Cl` [Example 24, (6S)-7-[2-Chloro-3-(trifluoromethyl)benzyl]-6-methyl-3-(1-methyl-1H-pyrazol-4-yl)-6,7-dihydro[1,2,4]triazolo[4,3-a]pyrazin-8(5H)-one] to `C[C@H]1Cn2c(nnc2-c2cn[nH]c2)C(=O)N1Cc1cccc(C(F)(F)F)c1Cl` [Example 25, (6S)-7-[2-Chloro-3-(trifluoromethyl)benzyl]-6-methyl-3-(1H-pyrazol-4-yl)-6,7-dihydro[1,2,4]triazolo[4,3-a]pyrazin-8(5H)-one], the remaining activity at 10 µM rises from -0.7% to 2.8%.

First: Cc1cc(-c2nnc3n2C[C@H](C)N(Cc2cccc(C(F)(F)F)c2Cl)C3=O)n[nH]1 [Example 26, (6S)-7-[2-Chloro-3-(trifluoromethyl)benzyl]-6-methyl-3-(5-methyl-1H-pyrazol-3-yl)-6,7-dihydro[1,2,4]triazolo[4,3-a]pyrazin-8(5H)-one]
Second: Cc1nc(-c2nnc3n2C[C@H](C)N(Cc2cccc(C(F)(F)F)c2Cl)C3=O)cs1 [Example 36, (6S)-7-[2-Chloro-3-(trifluoromethyl)benzyl]-6-methyl-3-(2-methyl-1,3-thiazol-4-yl)-6,7-dihydro[1,2,4]triazolo[4,3-a]pyrazin-8(5H)-one]
The remaining activity at 10 µM of the first is lower: -3.7% for the first, 2.8% for the second.

Going from `C[C@H]1Cn2c(nnc2-c2ncccn2)C(=O)N1Cc1cccc(C(F)(F)F)c1Cl` [Example 27, (6S)-7-[2-Chloro-3-(trifluoromethyl)benzyl]-6-methyl-3-pyrimidin-2-yl-6,7-dihydro[1,2,4]triazolo[4,3-a]pyrazin-8(5H)-one] to `C[C@H]1Cn2c(nnc2-c2ncc(F)cn2)C(=O)N1Cc1cccc(C(F)(F)F)c1Cl` [Example 34, (6S)-7-[2-Chloro-3-(trifluoromethyl)benzyl]-3-(5-fluoropyrimidin-2-v1)-6-methyl-6,7-dihydro[1,2,4]triazolo[4,3-a]pyrazin-8(5H)-one], the remaining activity at 10 µM rises from -0.7% to 0.8%.

First: C[C@H]1Cn2c(nnc2-c2cc[nH]n2)C(=O)N1Cc1cccc(C(F)(F)F)c1Cl [Example 28, (6S)-7-[2-Chloro-3-(trifluoromethyl)benzyl]-6-methyl-3-(1H-pyrazol-3-yl)-6,7-dihydro[1,2,4]triazolo[4,3-a]pyrazin-8(5H)-one]
Second: C[C@H]1Cn2c(nnc2-c2cscn2)C(=O)N1Cc1cccc(C(F)(F)F)c1Cl [Example 32, (6S)-7-[2-Chloro-3-(trifluoromethyl)benzyl]-6-methyl-3-(1,3-thiazol-4-yl)-6,7-dihydro[1,2,4]triazolo[4,3-a]pyrazin-8(5H)-one]
The remaining activity at 10 µM of the first is lower: -11.7% for the first, 3.8% for the second.

First: C[C@H]1Cn2c(nnc2-c2cccnc2)C(=O)N1Cc1cccc(C(F)(F)F)c1Cl [Example 29, (6S)-7-[2-Chloro-3-(trifluoromethyl)benzyl]-6-methyl-3-pyridin-3-yl-6,7-dihydro[1,2,4]triazolo[4,3-a]pyrazin-8(5H)-one]
Second: C[C@H]1Cn2c(nnc2-c2ccncc2)C(=O)N1Cc1cccc(C(F)(F)F)c1Cl [Example 47, (6S)-7-[2-Chloro-3-(trifluoromethyl)benzyl]-6-methyl-3-pyridin-4-yl-6,7-dihydro[1,2,4]triazolo[4,3-a]pyrazin-8(5H)-one]
The remaining activity at 10 µM of the first is lower: -3.4% for the first, -1.3% for the second.

Going from `C[C@H]1Cn2c(nnc2-c2ccc(F)cn2)C(=O)N1Cc1cccc(C(F)(F)F)c1Cl` [Example 30, (6S)-7-[2-Chloro-3-(trifluoromethyl)benzyl]-3-(5-fluoropyridin-2-yl)-6-methyl-6,7-dihydro[1,2,4]triazolo[4,3-a]pyrazin-8(5H)-one] to `C[C@H]1Cn2c(nnc2-c2ccncn2)C(=O)N1Cc1cccc(C(F)(F)F)c1Cl` [Example 33, (6S)-7-[2-Chloro-3-(trifluoromethyl)benzyl]-6-methyl-3-pyrimidin-4-yl-6,7-dihydro[1,2,4]triazolo[4,3-a]pyrazin-8(5H)-one], the remaining activity at 10 µM falls from 3.4% to 0.9%.

Going from `C[C@H]1Cn2c(nnc2-c2nccs2)C(=O)N1Cc1cccc(C(F)(F)F)c1Cl` [Example 31, (6S)-7-[2-Chloro-3-(trifluoromethyl)benzyl]-6-methyl-3-(1,3-thiazol-2-yl)-6,7-dihydro[1,2,4]triazolo[4,3-a]pyrazin-8(5H)-one] to `C[C@H]1Cn2c(nnc2-c2cncs2)C(=O)N1Cc1cccc(C(F)(F)F)c1Cl` [Example 37, (6S)-7-[2-Chloro-3-(trifluoromethyl)benzyl]-6-methyl-3-(1,3-thiazol-5-yl)-6,7-dihydro[1,2,4]triazolo[4,3-a]pyrazin-8(5H)-one], the remaining activity at 10 µM rises from 3% to 9%.

First: COc1ccnc(-c2nnc3n2C[C@H](C)N(Cc2cccc(C(F)(F)F)c2Cl)C3=O)c1 [Example 35, (6S)-7-[2-Chloro-3-(trifluoromethyl)benzyl]-3-(4-methoxypyridin-2-yl)-6-methyl-6,7-dihydro[1,2,4]triazolo[4,3-a]pyrazin-8(5H)-one]
Second: C[C@H]1Cn2c(nnc2-c2ccon2)C(=O)N1Cc1cccc(C(F)(F)F)c1Cl [Example 41, (6S)-7-[2-Chloro-3-(trifluoromethyl)benzyl]-3-isoxazol-3-yl-6-methyl-6,7-dihydro[1,2,4]triazolo[4,3-a]pyrazin-8(5H)-one]
The remaining activity at 10 µM of the first is lower: -3.1% for the first, 35% for the second.

Compared with `C[C@H]1Cn2c(nnc2-c2csc(C(F)(F)F)n2)C(=O)N1Cc1cccc(C(F)(F)F)c1Cl` [Example 38, (6S)-7-[2-Chloro-3-(trifluoromethyl)benzyl]-6-methyl-3-[2-(trifluoromethyl)-1,3-thiazol-4-yl]-6,7-dihydro[1,2,4]triazolo[4,3-a]pyrazin-8(5H)-one], `Cc1ncsc1-c1nnc2n1C[C@H](C)N(Cc1cccc(C(F)(F)F)c1Cl)C2=O` [Example 40, (6S)-7-[2-Chloro-3-(trifluoromethyl)benzyl]-6-methyl-3-(4-methyl-1,3-thiazol-5-yl)-6,7-dihydro[1,2,4]triazolo[4,3-a]pyrazin-8(5H)-one] is higher in remaining activity at 10 µM: 19.8% for the first, 22.3% for the second.

Compared with `Cc1nc(C)c(-c2nnc3n2C[C@H](C)N(Cc2cccc(C(F)(F)F)c2Cl)C3=O)s1` [Example 39, (6S)-7-[2-Chloro-3-(trifluoromethyl)benzyl]-3-(2,4-dimethyl-1,3-thiazol-5-yl)-6-methyl-6,7-dihydro[1,2,4]triazolo[4,3-a]pyrazin-8(5H)-one], `Cc1cccc(-c2nnc3n2C[C@H](C)N(Cc2cccc(C(F)(F)F)c2Cl)C3=O)n1` [Example 46, (6S)-7-[2-Chloro-3-(trifluoromethyl)benzyl]-6-methyl-3-(6-methylpyridin-2-yl)-6,7-dihydro[1,2,4]triazolo[4,3-a]pyrazin-8(5H)-one] is lower in remaining activity at 10 µM: 20.3% for the first, 2.7% for the second.

Going from `C[C@H]1Cn2c(nnc2-c2ncc(Br)cn2)C(=O)N1Cc1cccc(C(F)(F)F)c1Cl` [Example 42, (6S)-3-(5-Bromopyrimidin-2-yl)-7-[2-chloro-3-(trifluoromethyl)benzyl]-6-methyl-6,7-dihydro[1,2,4]triazolo[4,3-a]pyrazin-8(5H)-one] to `C[C@H]1Cn2c(nnc2-c2cncc(F)c2)C(=O)N1Cc1cccc(C(F)(F)F)c1Cl` [Example 45, (6S)-7-[2-Chloro-3-(trifluoromethyl)benzyl]-3-(5-fluoropyridin-3-yl)-6-methyl-6,7-dihydro[1,2,4]triazolo[4,3-a]pyrazin-8(5H)-one], the remaining activity at 10 µM falls from 37.4% to 20.1%.

Compared with `C[C@H]1Cn2c(nnc2-c2cccnn2)C(=O)N1Cc1cccc(C(F)(F)F)c1Cl` [Example 44, (6S)-7-[2-Chloro-3-(trifluoromethyl)benzyl]-6-methyl-3-pyridazin-3-yl-6,7-dihydro[1,2,4]triazolo[4,3-a]pyrazin-8(5H)-one], `Cc1ncccc1-c1nnc2n1C[C@H](C)N(Cc1cccc(C(F)(F)F)c1Cl)C2=O` [Example 48, (6S)-7-[2-Chloro-3-(trifluoromethyl)benzyl]-6-methyl-3-(2-methylpyridin-3-yl)-6,7-dihydro[1,2,4]triazolo[4,3-a]pyrazin-8(5H)-one] is lower in remaining activity at 10 µM: 26% for the first, 0% for the second.

First: C[C@H]1Cn2c(nnc2C2CCC2)C(=O)N1Cc1cccc(C(F)(F)F)c1Cl [Example 49, (6S)-7-[2-Chloro-3-(trifluoromethyl)benzyl]-3-cyclobutyl-6-methyl-6,7-dihydro[1,2,4]triazolo[4,3-a]pyrazin-8(5H)-one]
Second: C[C@H]1Cn2c(nnc2C2CC2)C(=O)N1Cc1cccc(C(F)(F)F)c1Cl [Example 50, (6S)-7-[2-Chloro-3-(trifluoromethyl)benzyl]-3-cyclopropyl-6-methyl-6,7-dihydro[1,2,4]triazolo[4,3-a]pyrazin-8(5H)-one]
The remaining activity at 10 µM of the first is lower: -3.1% for the first, 8.7% for the second.

First: C[C@H]1Cn2c(nnc2C2CCCCC2)C(=O)N1Cc1cccc(C(F)(F)F)c1Cl [Example 51, (6S)-7-[2-Chloro-3-(trifluoromethyl)benzyl]-3-cyclohexyl-6-methyl-6,7-dihydro[1,2,4]triazolo[4,3-a]pyrazin-8(5H)-one]
Second: C[C@H]1Cn2c(nnc2-c2cncc(Cl)c2)C(=O)N1Cc1cccc(C(F)(F)F)c1Cl [Example 52, (6S)-3-(5-Chloropyridin-3-yl)-7-[2-chloro-3-(trifluoromethyl)benzyl]-6-methyl-6,7-dihydro[1,2,4]triazolo[4,3-a]pyrazin-8(5H)-one]
The remaining activity at 10 µM of the first is higher: 22.4% for the first, 13.8% for the second.
